Data taken from patent US9668960B2, “Methods useful in studying or modulating skin or hair pigmentation, plant extracts for use in compositions and cosmetic care method” (L V M H RECHERCHE, priority 2008, dated 2017).

Key:
tyrosinase [1] = experiment: Tyrosinase activity in normal human melanocyte and keratinocyte co-culture (EM:KC); format: cell-based; conditions: 72 h; for % Change in EM Tyrosinase Activity of stimulated EM vs. stimulated EM-EK) level (i.e. 12.16): co-culture versus monoculture under the same stimulus; for % Change in EM Tyrosinase Activity vs. Basal EM level (i.e. 0), EM-EK: matched EM-EK co-culture (F52), L-18 0.001%, L-23 0.05 μg/ml, IBMX 100 μM, niacinamide 10 μM, basal co-culture +12.16
Method: The cells were prepared for SDS-PAGE and transblotted onto PVDF membranes. 70 μg of un-reduced protein extract without boiling was pipetted into the appropriate wells of 8% SDS-PAGE gels. […] The L-DOPA reaction was stopped by washing the membrane in distilled water and the membrane was scanned. […] Normal human epidermal melanocyte culture (Female-52; p5) and matched co-culture […] MC-KC were treated for 72 h with L-18 (0.001%), L-23 (0.05 μg/ml). Controls: Melanocytic modulators: IBMX (100 μM), and niacinamide (10 μM). Negative control lane: Keratinocytes only (A) Protein extracts were electroblotted and membranes stained with L-DOPA for the estimation of tyrosinase activity. (B) Densitometric scanning of band intensities and values were expressed as the fold increase compared to unstimulated control levels. Means are ±SEM of 3 independent experiments with *P<0.05, **P<0.01, ***P<0.001.

FM55 melanoma cells = experiment: Melanin assay (melanogenesis) in moderately-pigmented FM55 melanoma; format: cell-based, human; conditions: 72 h; for Changes in melanin levels, FM55 % change: L-18 0.001%, L-19 1%, L-20 0.5%, L-21 10 μg/ml, L-22 1%, L-23 0.05 μg/ml, IBMX 100 μM, NH4Cl 100 μM, niacinamide 10 μM, vs basal; for Melanin content, FM55 (pg/cell): same doses as E3, basal 9.92
Method: Cells were then washed 3-times with sterile PBS and supplemented with 350 μl of either fresh serum-free RPMI medium (melanoma cells) or starved serum-free and BPE-free melanocyte medium (EM) and incubated at 37° C. and 5% CO2 for 24 h. Cells were then washed with sterile PBS 3-times and incubated with IBMX 1×10^-4 M at 37° C. and 5% CO2 for 12, 24, and 72 h. Cells were then gently washed 3-times with sterile PBS and fixed in ice-cold methanol for 10 minutes at -20° C. Slides were stored at -20° C. until immunocytochemistry was performed. […] The melanin standards were pipetted into a 96 well plate to produce a calibration curve for the assessment of melanin content in the test samples. 400 μl of 1 M NaOH was added to each cell pellet and dissolved on a heat block (100° C.) for 15 minutes. The pellets were vortexed vigorously and the solubilized pellet was pipetted into the same 96-well plate. The optical densities of the sample were read at […] on a DYNEX REVELATION 4.02 program. Melanin content of each test sample was read from the calibration curve. […] In addition IBMX and NH4Cl (positive melanocytic modulators) and niacinamide (negative modulator) were used as controls. […] Controls: Melanocytic modulators: IBMX (100 μM), NH4Cl (100 μM), and niacinamide (10 μM). (A) Melanin content was determined spectrophotometrically (475 nm) after sodium hydroxide solubilisation. […] (B). Results were expressed as the change in melanin content (pg/cell) compared to unstimulated control levels. Means are ±SEM of 3 independent experiments with *P<0.05, **P<0.01, ***P<0.001.

tyrosinase [2] = experiment: DOPA oxidase detection for tyrosinase activity in pigmented normal human melanocytes; format: cell-based; conditions: 72 h; for Changes in tyrosinase activity, F52 EMc % change / % Change in EM Tyrosinase Activity vs. Basal EM level (i.e. 0), EM: L-18 0.001%, L-23 0.05 μg/ml, IBMX 100 μM, niacinamide 10 μM; for Changes in tyrosinase activity, F52 EMc % change: L-19 1%, L-20 0.5%, L-21 10 μg/ml, L-22 1%, NH4Cl 100 μM, vs basal; for % Change in EM Tyrosinase Activity vs. Basal EM level (i.e. 0), EM: EM monoculture (F52)
Method: The cells were prepared for SDS-PAGE and transblotted onto PVDF membranes. 70 μg of un-reduced protein extract without boiling was pipetted into the appropriate wells of 8% SDS-PAGE gels. […] The L-DOPA reaction was stopped by washing the membrane in distilled water and the membrane was scanned. […] In addition IBMX and NH4Cl (positive melanocytic modulators) and niacinamide (negative modulator) were used as controls. […] Normal human epidermal melanocytes (Female-52; p5) were treated for 72 h with L-18 (0.001%), L-19 (1%), L-20 (0.5%), L-21 (10 μg/ml), LVMH-22 (1%) and L-23 (0.05 μg/ml). Controls: Melanocytic modulators: IBMX (100 μM), NH4Cl (100 μM), and niacinamide (10 μM). (A) Protein extracts were electroblotted and membranes stained with L-DOPA for the estimation of tyrosinase activity.

[3] = system: melanosome transfer from melanocytes to matched keratinocytes; experiment: Quantitative analysis of gp100-positive melanosome transfer in melanocyte-keratinocyte co-culture; format: cell-based, human; conditions: for gp 100+ Spots/KC / % Change of Melanin Transfer vs. Basal: 24 h; for gp 100+ Spots/KC: co-culture F39, L-18 0.001%, L-19 1%, L-20 0.5%, L-21 10 μg/ml, L-22 1%, L-23 0.05 μg/ml, basal 27.3; for % Change of Melanin Transfer vs. Basal: same doses as E10
Method: Quantitative analysis of melanosome transfer: Fully-matched epidermal melanocytes (p4) and epidermal keratinocytes (p2) from 4 normal individuals (i.e., F39; F67; F54; F52) were maintained in 8-well Lab-Tek® chamber slides at a total cell density of 2×10^4 cells/well and in a ratio of 1 melanocyte to 10 normal keratinocytes. The co-culture was maintained for further 24 h before washing 3-times with sterile PBS before incubation with starved medium alone, or L-18 (0.001%), L-19 (1%), L-20 (0.5%), L-21 (10 μg/ml), L-22 (1%) and L-23 (0.05 μg/ml) for 12 and 72 h. Controls included IBMX (100 μM) and niacinamide (10 μM). Cells were then processed for immunofluorescence staining with gp100 to assess melanosome transfer to keratinocytes.
Evaluation of melanosome transfer was performed by counting fluorescent gp100-positive spots within recipient keratinocytes in 5 random microscopic fields per well at 100× magnification (oil-immersion) in 3 independent experiments. To avoid counting melanin granules that may still be associated with melanocytes, we only counted gp100-positive spots within keratinocytes that were not in direct contact with melanocytes.
Gp100 immunostaining provides a powerful tracking method for the global assessment of melanin transfer to keratinocytes, and for the evaluation of melanocyte phenotype modulators (Singh et al., 2008). […] In this assay melanosome transfer from melanocytes to matched keratinocytes under basal (i.e., unstimulated) conditions was determined at an average of 27.3 gp100-positive spots per keratinocyte. However, this was increased almost 4-fold after 24 h stimulation of co-cultures with IBMX to 99.5 gp100-positive spots per keratinocyte. Conversely, niacinamide reduced melanosome transfer by 28% (19.6 gp100-positive spots per keratinocyte; p<0.01; a result that correlates with its clinical use as a lightener of cutaneous pigmentation (Hakozaki et al, 2002; Greatens et al., 2005).
Means are ±SEM of 4 independent experiments with **P<0.01, ***P<0.001.

Structure (SMILES)	% Change in EM Tyrosinase Activity of stimulated EM vs. stimulated EM-EK) level (i.e. 12.16) (tyrosinase [1])	% Change in EM Tyrosinase Activity vs. Basal EM level (i.e. 0), EM-EK (tyrosinase [1])	Changes in melanin levels, FM55 % change (FM55 melanoma cells)	Melanin content, FM55 (pg/cell) (FM55 melanoma cells)	effect on melanin content compared with basal levels (FM55 melanoma cells; FM55 melanoma cells, doses as E3)	Changes in tyrosinase activity, F52 EMc % change (tyrosinase [2])	% Change in EM Tyrosinase Activity vs. Basal EM level (i.e. 0), EM (tyrosinase [2])	effect on tyrosinase (dopa oxidase) activity compared with basal levels (tyrosinase [2]; normal melanocytes (EM), doses as E5)	gp 100+ Spots/KC ([3]; IBMX 100 μM, niacinamide 10 μM) [Spots/KC]	% Change of Melanin Transfer vs. Basal [3]	melanosome transfer increased, fold versus basal ([3]; 24 h stimulation of co-cultures, IBMX 100 μM) [fold]	melanosome transfer reduced by ([3]; niacinamide 10 μM, p<0.01) [%]
CC(C)Cn1c(=O)n(C)c(=O)c2[nH]cnc21 [IBMX]	+23.57%	+93.41%	+250.8%	(34.8) pg/cell	visible increases in melanogenesis	+72.47%	+56.51%	dramatic increase in dopa oxidase activity of tyrosinase	99.5	+264%	~4	–
NC(=O)c1cccnc1 [niacinamide]	−18.84%	−20.50%	−5.94%	(9.33) pg/cell	–	−4.58%	−2.12%	–	19.6	−28%	–	28
